# Test results reported in patent publication US7112570B2, “GPE analogs” (Neuren Pharmaceuticals, Ltd., priority 2000, dated 2006).
# Ends that are not written are not given here. 3H = tritium label
# Tests used:
# [1] = Tissue distribution / brain accumulation of tritiated GPE after cardiac, iv, ip or icv administration; details: rat
# Procedure: (§1) Tritiated GPE (Gly-[^3H]Pro-Glu, 1.6 ml, specific activity 50–60 Ci/mmol) obtained from Sibtech, Inc., USA was used in these experiments.
# (§2) Adult Wistar rats (300 g) were prepared under halothane/O2 anaesthesia. The rats were randomly assigned to one of four groups: tritiated GPE, saline+0.1% BSA, tritiated GPE+non-tritiated GPE or tritiated proline. Rats in the tritiated GPE, tritiated proline and control groups were sacrificed at 30 min, 1 hr or 6 hrs after administration. Rats co-administered with both tritiated and non- tritiated GPE were sacrificed at 10 minutes after administration. For all groups, tissue was homogenized in Soluene® (a tissue solubilizer; Packard Bioscience Company, Meriden Conn.) and counted in a β counter.
# (§3) Rats were injected with 10 million counts of tritiated GPE in 500 μl total (made up with 0.1% BSA in saline). Animals were sacrificed at 30 minutes, 1, 3 or 6 hrs. Tissue was homogenized in Soluene® and counted in a β counter.
# (§4) Adult Wistar rats (300 g) were prepared under halothane/O2 anaesthesia. A guide cannula was placed on the dura 7.5 mm anterior from stereotaxic zero and 1.5 mm from midline on the right. One million counts of GPE and 600 μl of non-tritiated GPE were injected in 8 μl total volume (made up with 0.1% BSA in saline). Rats were sacrificed 30 minutes after administration. Tissue was homogenized in Soluene® and counted in a β counter.
# (§5) Tritiated GPE, tritiated GPE+non-tritiated GPE, tritiated proline (Amersham) or tritiated proline+non-tritiated proline in vehicle (0.1M citrate buffer [pH6], diluted 10 times in 0.1% bovine serum albumin in 0.1M phosphate buffered saline [PBS] [pH7.3]) were then given by different routes of administration to injured and non-injured rats according to the following study design:
# (§6) Cardiac administration was performed using a syringe. The syringe needle was placed into the left ventricle and one of the above four solutions was given.
# (§7) IV administration was carried out by injecting one of the four solutions into the tail vein.
# (§8) IP administration was performed by injecting one of the four solutions into the peritoneal cavity.
# (§9) ICV administration was carried out according to the following procedure. The rats were lightly anaesthetized again using 0.15 ml Saffan™ (Pitman-Moore Ltd, NZ). The infusion of one of the four solutions was made into the right lateral ventricle guided by a metal cap fitted over the rat head using a modified technique originally described by Jirikowski (J Neuroscience Methods, 42: 115–118, 1992), in order to ensure correct placement of the infusion needle. One of the four solutions was administered in a single dose.
# (§10) The rats were sacrificed using pentobarbital 10, 60 or 360 minutes after administration of either tritiated GPE or tritiated proline. […] Counts/minute/mg were made in the following tissues: kidney, blood, adrenal glands, liver, lung, testicle, heart, muscle, spinal cord and brain. HPLC was used in order to check that the particles counted were either tritiated GPE or tritiated proline.
# [2] = test system: hypoxic-ischemic injury, hippocampal CA1/2 neurons; experiment: Neuronal survival after hypoxic-ischemic injury, GPE administered peripherally; type: in vivo; details: rat, GPE intraperitoneally 2 hours after hypoxia, sacrificed 7 days after injury, FIG. 4
# Procedure: This experiment involved treating rats with a control vehicle or GPE administered peripherally 2 hours after a focal CNS injury. […] The degree and length of hypoxia, the ambient temperature and humidity were defmed to standardize the degree of damage. The neuronal death is restricted to the side of the carotid ligation and is primarily in the hippocampus, dentate gyrus, striatum and lateral cortex of the ligated hemisphere. There is no neuronal loss in the contralateral hemisphere.
# Specifically forty-nine 50–60 day old adult Wistar rats (280–310 g) were prepared under halothane/O2 anaesthesia. The right side carotid artery was ligated. The rats were allowed to recover for 1 hour and were then placed in an incubator with humidity 90±5% and temperature 31±0.5° C. for 1 hour before hypoxia. Oxygen concentration was reduced and maintained at 6±0.2% 02 for 10 minutes. […]
# The rats were transcardially perfised with 0.9% saline followed by 4% paraformaldehyde, and the brains were removed and embedded in paraffin. […] Only cells with a morphology like live neurons were counted, while dead neurons or cells with morphology like glia were not included. […]
# A coronal section (A-P 4.5 mm) was used for analysis of the hippocampus. All surviving neurons in the hippocampal CA1/2 region of the injured hemisphere were counted. Data were analysed with paired t-test and presented as mean±sem (standard error of the mean).
# [3] = rat, in vivo
# Procedure: as §1, §2, §3, §4, §5, §6, §7, §8, §9, §10
# [4] = test system: ^3H-Me-GPE binding sites in the rat brain; experiment: ^3H-Me-GPE binding autoradiography on rat tissue sections; details: excess (10 μM) of competitor
# Procedure: After tritiation the reaction mixture was diluted in ammonium acetate buffer (0.05M, pH 5.5 with 20% v/v methanol, 10 ml) and purified using Accell CM- and QMA+Sep-Paks (Waters, Milford, Mass., USA) in series. After washing with the ammonium acetate buffer to remove reagents and byproducts (tritiated water and tritiated methanol), the CM- and QMA+cartridges were uncoupled and the ^3H-Me-GPE was eluted from the QMA cartridge with ammonium bicarbonate (0.3M, 6 ml). The eluted material was lyophilized twice to remove the bulk of the ammonium bicarbonate, dissolved in ethanol-water (1:19, 20 μl ) and aliquots stored at −70° C.
# The following experimental protocol followed guidelines approved by the University of Auckland Animal Ethics Committee. Adult male Wistar rats were killed by decapitation and tissues immediately removed and stored at −80° C. Coronal sections (16 μm) were cut on a cryostat and mounted on gelatin-coated slides. Normal adult human postmortem brain (n=4) tissue was cut and mounted in a similar manner. […]
substance,measurement,setting,value
Gly-Pro-Glu [GPE],uptake in the brain of rats with an hypoxic-ischemic brain injury,[1]; ICV administration,selectively taken up on the injured side of the brain
same,displacement when tritiated and non-tritiated GPE were administered together,"[1]; cardiac administration, supported by ICV administration",the only displacement of GPE occurred in the brain
same,ability to pass through the blood-brain-barrier,[1]; including in the absence of neural insult,pass through the blood-brain-barrier
same,amount in the brain compared to the corresponding time-points after iv and cardiac injection,[1]; ip administration,increased
same,neuronal survival in the hippocampus after an hypoxic-ischemic injury,[2],increases neuronal survival
"Gly-[^3H]Pro-Glu (Gly-Pro(3H)-Glu; UniProt P05019 49-51, looked up, fragment) [tritiated GPE]",amount in the brain relative to the blood,[3],increases over time
same,time-point at which there was the most tritiated GPE in the brain,[3],60 min
N-methyl-GPE,blockade of ^3H-Me-GPE binding in the CA1-2 region,[4],blocked
